Experimental data: PMC2912403 (Journal of medicinal chemistry, 2010)
“Also recorded” adds a separate entry of the source.

Key:
[1] = tested on: κ agonist U50,488-induced diuresis; details: antagonism of U50,488-induced diuresis; cited from earlier work
[2] = tested on: κ agonist U50,488-induced diuresis; assay: Antagonism of U50,488-induced diuresis in rats; assay type: in vivo, male Sprague-Dawley rats; details: for antagonism of U50,488-induced diuresis (urine output), week 0: s.c., first 5 h after dosing, U50,488 10 mg/kg; for antagonism of U50,488-induced diuresis (urine output), week 1: single s.c. dose at week 0, no further dosing

Row | Structure (SMILES) | duration of κ antagonist activity [1] | antagonism of U50,488-induced diuresis (urine output), week 0 [2] | antagonism of U50,488-induced diuresis (urine output), week 1 [2] | antagonism of the diuretic effects of U50,488 at individual doses ([2]; 10 and 30 mg/kg s.c., week 0, Dunnett's test vs U50,488) | duration of activity as antagonist of U50,488-induced diuresis ([2]; single s.c. dose)
1 | Oc1ccc2c3c1O[C@H]1c4[nH]c5c(c4C[C@@]4(O)[C@@H](C2)N(CC2CC2)CC[C@]314)C[C@@]1(O)[C@H]2Cc3ccc(O)c4c3[C@@]1(CCN2CC1CC1)[C@H]5O4 [Compound 1, norBNI] | up to 3 weeks | – | – | – | –
2 | CC(C)[C@@H](CN1CC[C@@](C)(c2cccc(O)c2)[C@@H](C)C1)NC(=O)[C@H]1Cc2ccc(O)cc2CN1 [Compound 3, (3R)-7-Hydroxy-N-[(1S)-1-{[(3R,4R)-4-(3-hydroxyphenyl)-3,4-dimethyl-1-piperidinyl]methyl}-2-methylpropyl)-1,2,3,4-tetrahydro-3-isoquinolinecarboxamide, reference compound] | – | dose-related antagonism | continued to show dose-related antagonism | – | –
3 | CC(C)[C@@H](CN1CC[C@@](C)(c2cccc(O)c2)[C@@H](C)C1)NC(=O)[C@@H]1CCc2cc(O)ccc2C1 [Compound 7a, 6-Hydroxy-1,2,3,4-tetrahydro-naphthalene-2(+)-carboxylic acid-{1-[4-(3-hydroxyphenyl)-(3R,4R)-trans-dimethyl-piperidinylmethyl]-(2S)-methylpropyl}amide] | – | antagonized selective κ agonist U50,488-induced diuresis; also recorded: dose-related antagonism | did not show any κ antagonist activity after one week; also recorded: antagonism of U50,488 could no longer be detected | significant antagonism | less than 1 week
